Experimental data from patent US9018395B2, “Pyrazolopyridine and pyrazolopyrimidine derivatives as melanocortin-4 receptor modulators” (Université de Montréal, priority 2011, dated 2015).
Non-standard residues stand in square brackets, D forms with d. Nle = CCCC[C@H](N)C(=O)O

Biological target: T1, wild-type human melanocortin 4 receptor (WT-hMC4R) (Homo sapiens, UniProt P32245)
T1 construct: expressed in transfected cells; cDNA from UMR cDNA resource center
Assay: Cyclic AMP assay (HTRF), antagonist competition against NDP-α-MSH
Assay type: cell-based
Details: HEK293T cells expressing double-tagged WT-hMC4R; cAMP accumulation; 1 hour compound then 4 nM NDP-α-MSH 30 min
Procedure, shortened: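 HEK293T cells stably expressing N-terminal 3xHA, C-terminal venus-YFP tagged WT-hMC4R, in D-PBS with 0.75 mM IBMX; compound (0.01 nM-10 μM) 1 h at 37° C, then 4 nM NDP-α-MSH 30 min. cAMP by HTRF competitive immunoassay; IC50 from sigmoidal variable-slope fit.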

T1 sequence (P32245 whole entry): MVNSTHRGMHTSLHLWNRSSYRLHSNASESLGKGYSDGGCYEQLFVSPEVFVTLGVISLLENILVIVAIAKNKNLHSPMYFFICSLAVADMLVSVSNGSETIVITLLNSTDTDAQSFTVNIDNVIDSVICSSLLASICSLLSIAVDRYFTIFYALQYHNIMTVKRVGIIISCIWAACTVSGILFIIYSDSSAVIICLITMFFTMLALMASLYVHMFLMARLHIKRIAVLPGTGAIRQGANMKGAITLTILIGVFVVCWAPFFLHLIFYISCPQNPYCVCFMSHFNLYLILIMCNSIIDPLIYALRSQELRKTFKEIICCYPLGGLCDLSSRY

Row | Compound | IC50 [nM]
1 | COc1ccc(-c2nn3ccc(C(=O)N(CCC(C)C)CCC(C)C)nc3c2/C=C/CN2CCCCC2)cc1 [Example 88, (E)-N,N-Diisopentyl-2-(4-methoxyphenyl)-3-(3-(piperidin-1-yl)prop-1-en-1-yl)pyrazolo[1,5-a]pyrimidine-5-carboxamide] | 1000 to 5000
2 | CC(C)CCN(CCC(C)C)C(=O)c1ccn2nc(-c3ccc(Cl)cc3)c(/C=C/CN3CCCCC3)c2c1 [Example 10, (E)-2-(4-chlorophenyl)-N,N-diisopentyl-3-(3-(piperidin-1-yl)prop-1-en-1-yl)pyrazolo[1,5-a]pyridine-5-carboxamide] | 500 to 1000
3 | CC(C)CCN(CCC(C)C)Cc1ccn2nc(-c3ccccc3)c(CCCN3CCCCC3)c2c1 [Example 144] | 5000 to 15000
4 | CCCCN(CCCC)C(=O)c1ccn2nc(-c3ccc(F)cc3)c(CCCN3CCCCC3)c2c1 [Example 48] | 500 to 1000
5 | COc1ccc(-c2nn3ccc(C(=O)N(CCC(C)C)CCC(C)C)cc3c2/C=C/CN2CCCC(F)C2)cc1 (centres unmarked) [Example 158] | 1000 to 5000
6 | CCN(CC)CCCc1c(-c2ccc(OC)cc2)nn2ccc(C(=O)N(CCC(C)C)CCC(C)C)nc12 [Example 105] | 5000 to 15000
7 | CCCCCN(CCCCC)C(=O)c1ccn2nc(-c3cc(OC)c(OC)c(OC)c3)c(/C=C/CN3CCCCC3)c2c1 [Example 71] | 1000 to 5000
8 | CCCCN(CCCC)CCCc1c(-c2ccc(OC)cc2)nn2ccc(C(=O)N(CCCC)CCCC)cc12 [Example 112] | 1000 to 5000
9 | COc1ccc(-c2nn3ccc(C(=O)N(CCC(C)C)CCC(C)C)cc3c2/C=C/CN2CCCCCC2)cc1 [Example 106] | 1000 to 5000
10 | COc1ccc(-c2nn3ccc(C(=O)N(CCC(C)C)CCC(C)C)cc3c2/C=C/CN2CCCOCC2)cc1 [Example 159] | 500 to 1000
11 | CCCCCN(CCCCC)C(=O)c1ccn2nc(-c3cc(OC)c(OC)c(OC)c3)c(CCCN3CCCCC3)c2c1 [Example 68] | 500 to 1000
12 | CCCCCN(CCCCC)C(=O)c1ccn2nc(-c3ccccc3)c(CCCN3CCCCC3)c2c1 [Example 56] | 500 to 1000
13 | CCCCN(CCCC)C(=O)c1ccn2nc(-c3cc(OC)c(OC)c(OC)c3)c(/C=C/CN3CCCCC3)c2c1 [Example 69] | 500 to 1000
14 | CCCCCN(CCCCC)C(=O)c1ccn2nc(-c3ccc(F)cc3)c(/C=C/CN3CCCCC3)c2c1 [Example 53] | 1000 to 5000
15 | COc1ccc(-c2nn3ccc(C(=O)N(CCC(C)C)CCC(C)C)cc3c2CCCN(C)C2CCNCC2)cc1 [Example 129] | 500 to 1000
16 | CCCCN(CCCC)C(=O)c1ccn2nc(-c3ccc(C)cc3)c(CCCN3CCCCC3)c2c1 [Example 60] | 500 to 1000
17 | CC(C)CCN(CCC(C)C)C(=O)c1ccn2nc(-c3cccc(C(=O)O)c3)c(/C=C/CN3CCCCC3)c2c1 [Example 73] | 1000 to 5000
18 | CCCNCCCc1c(-c2ccc(OC)cc2)nn2ccc(C(=O)N(CCC(C)C)CCC(C)C)cc12 [Example 163] | 1000 to 5000
19 | CC(C)CCN(CCC(C)C)C(=O)c1ccn2nc(-c3ccc(Br)cc3)c(/C=C/CN3CCCCC3)c2c1 [Example 41, (E)-2-(4-Bromophenyl)-N,N-diisopentyl-3-(3-(piperidin-1-yl)prop-1-en-1-yl)pyrazolo[1,5-a]pyridine-5-carboxamide] | 1000 to 5000

Other lines, results leading:

Row | IC50 [nM] | Compound
20 | 5000 to 15000 | COc1ccc(-c2nn3ccc(C(=O)N(CCC(C)C)CCC(C)C)cc3c2CCN2CCCCC2)cc1 [Example 149, N,N-diisopentyl-2-(4-methoxyphenyl)-3-(2-(piperidin-1-yl)ethyl)pyrazolo[1,5-a]pyridine-5-carboxamide]
21 | < 500 | CC(C)CCN(CCC(C)C)C(=O)c1ccn2nc(-c3cccc(Cl)c3)c(CCCN3CCCCC3)c2c1 [Example 83, 2-(3-Chlorophenyl)-N,N-diisopentyl-3-(3-(piperidin-1-yl)propyl)pyrazolo[1,5-a]pyridine-5-carboxamide]
22 | 500 to 1000 | COc1ccc(-c2nn3ccc(C(=O)N(CCC(C)C)CCC(C)C)cc3c2CCCN2CCCCC2C)cc1 (centres unmarked) [Example 168]
23 | < 500 | Cc1nc(-c2ccc(-c3nn4ccc(C(=O)N(CCC(C)C)CCC(C)C)cc4c3CCCN3CCCCC3)cc2)no1 [Example 135]
24 | < 500 | CC(C)CCN(CCC(C)C)C(=O)c1ccn2nc(-c3ccc(Br)cc3)c(CCCN3CCCCC3)c2c1 [Example 45]
25 | 5000 to 15000 | CCOc1ccc(-c2nn3ccc(C(=O)N(CCC(C)C)CCC(C)C)cc3c2CCCN2CCC(F)(F)CC2)cc1 [Example 80]
26 | 1000 to 5000 | COc1ccc(-c2nn3ccc(C(=O)N(CCC(C)C)CCC(C)C)cc3c2CCCN2CCC(C)CC2)cc1 [Example 146]
27 | 500 to 1000 | CCOc1ccc(-c2nn3ccc(C(=O)N(CCC(C)C)CCC(C)C)cc3c2CCCN2CCCCC2)cc1 [Example 22]
28 | 1000 to 5000 | COc1ccc(-c2nn3ccc(C(=O)N(CCC(C)C)CCC(C)C)cc3c2CCCN2CCC2)cc1 [Example 156]
29 | 1000 to 5000 | CC(C)CCN(CCC(C)C)C(=O)c1ccn2nc(-c3ccccc3Br)c(CCCN3CCCCC3)c2c1 [Example 38]
30 | 1000 to 5000 | CC(C)CCN(CCC(C)C)C(=O)c1ccn2nc(-c3ccc(Cl)cc3)c(CCCN3CCCCC3)c2c1 [Example 11, 2-(4-Chlorophenyl)-N,N-diisopentyl-3-(3-(piperidin-1-yl)propyl)pyrazolo[1,5-a]pyridine-5-carboxamide]
31 | 1000 to 5000 | CC(C)CCN(CCC(C)C)C(=O)c1ccn2nc(-c3ccc(-c4nnn[nH]4)cc3)c(CCCN3CCCCC3)c2c1 [Example 98]
32 | < 500 | CC(C)CCN(CCC(C)C)C(=O)c1ccn2nc(-c3ccc(C#N)cc3)c(CCCN3CCCCC3)c2c1 [Example 96]
33 | < 500 | CC(=O)c1cccc(-c2nn3ccc(C(=O)N(CCC(C)C)CCC(C)C)cc3c2CCCN2CCCCC2)c1 [Example 33]
34 | < 500 | CC(C)CCN(CCC(C)C)C(=O)c1ccn2nc(-c3cccc(Br)c3)c(CCCN3CCCCC3)c2c1 [Example 37]
35 | < 500 | CC(C)CCN(CCC(C)C)C(=O)c1ccn2nc(-c3ccc(/C(N)=N/O)cc3)c(CCCN3CCCCC3)c2c1 [Example 102]
36 | 500 to 1000 | CC(C)CCN(CCC(C)C)C(=O)c1ccn2nc(-c3cccc(C(C)O)c3)c(CCCN3CCCCC3)c2c1 (centres unmarked) [Example 32]

Tested on: MC4R/MC5R
Assay: not given
Details: cited from earlier work

Row | Compound | selectivity for MC4R as compared to MC5R [fold]
37 | Ac-Nle-Gly-Lys-D-Nal(2)-Arg-Trp-Gly-NH(2) | 109
38 | Ac-Nle-Gly-Lys-D-Phe-Arg-Trp-Gly-NH(2) (Ac-[Nle]GK[dF]RWG-NH2; SMILES CCCC[C@H](NC(C)=O)C(=O)NCC(=O)N[C@@H](CCCCN)C(=O)N[C@H](Cc1ccccc1)C(=O)N[C@@H](CCCNC(=N)N)C(=O)N[C@@H](Cc1c[nH]c2ccccc12)C(=O)NCC(N)=O) | 110

Tested on: MC4R/MC3R
Assay: not given
Details: cited from earlier work

Row | Compound | selectivity for MC4R as compared to MC3R [fold]
39 | Ac-Nle-Gly-Lys-D-Nal(2)-Arg-Trp-Gly-NH(2) | 34
40 | Ac-Nle-Gly-Lys-D-Phe-Arg-Trp-Gly-NH(2) (Ac-[Nle]GK[dF]RWG-NH2; SMILES CCCC[C@H](NC(C)=O)C(=O)NCC(=O)N[C@@H](CCCCN)C(=O)N[C@H](Cc1ccccc1)C(=O)N[C@@H](CCCNC(=N)N)C(=O)N[C@@H](Cc1c[nH]c2ccccc12)C(=O)NCC(N)=O) | 90

Tested on: not given
Assay: not given
Details: in vivo; cited from earlier work

Row | Compound | blood-brain barrier crossing
41 | Ac-Nle-Gly-Lys-D-Nal(2)-Arg-Trp-Gly-NH(2) | crossed the blood-brain barrier
42 | Ac-Nle-Gly-Lys-D-Phe-Arg-Trp-Gly-NH(2) (Ac-[Nle]GK[dF]RWG-NH2; SMILES CCCC[C@H](NC(C)=O)C(=O)NCC(=O)N[C@@H](CCCCN)C(=O)N[C@H](Cc1ccccc1)C(=O)N[C@@H](CCCNC(=N)N)C(=O)N[C@@H](Cc1c[nH]c2ccccc12)C(=O)NCC(N)=O) | crossed the blood-brain barrier

Tested on: MC4R
Assay: not given
Details: cited from earlier work

Row | Compound | activity in vivo
43 | Ac-Nle-Gly-Lys-D-Nal(2)-Arg-Trp-Gly-NH(2) | active in vivo
44 | Ac-Nle-Gly-Lys-D-Phe-Arg-Trp-Gly-NH(2) (Ac-[Nle]GK[dF]RWG-NH2; SMILES CCCC[C@H](NC(C)=O)C(=O)NCC(=O)N[C@@H](CCCCN)C(=O)N[C@H](Cc1ccccc1)C(=O)N[C@@H](CCCNC(=N)N)C(=O)N[C@@H](Cc1c[nH]c2ccccc12)C(=O)NCC(N)=O) | active in vivo
